{"source": "paper PMC12775434", "about": "“Ultra-large virtual screening unveils potent agonists of the neuromodulatory orphan receptor GPR139” (Nature Communications, 2025)", "format_in_all_cases": "cell-based", "key": {"[1]": {"biological_target": "T1, human muscarinic acetylcholine M1 receptor (M1R) (Homo sapiens, UniProt P11229)", "T1 sequence (P11229 1-460)": "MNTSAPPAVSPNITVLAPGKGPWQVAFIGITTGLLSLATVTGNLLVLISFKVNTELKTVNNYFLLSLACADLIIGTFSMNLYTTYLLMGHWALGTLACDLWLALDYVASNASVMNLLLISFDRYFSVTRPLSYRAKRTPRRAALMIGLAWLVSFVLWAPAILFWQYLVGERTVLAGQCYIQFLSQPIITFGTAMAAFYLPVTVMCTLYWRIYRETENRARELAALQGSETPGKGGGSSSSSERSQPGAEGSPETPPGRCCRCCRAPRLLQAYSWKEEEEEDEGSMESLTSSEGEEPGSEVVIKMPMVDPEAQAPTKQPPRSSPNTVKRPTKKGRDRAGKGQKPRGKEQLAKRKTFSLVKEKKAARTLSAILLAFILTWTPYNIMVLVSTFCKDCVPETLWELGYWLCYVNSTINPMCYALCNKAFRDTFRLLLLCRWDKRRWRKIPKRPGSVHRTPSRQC", "experiment": "Ca2+ mobilization counter-screen in M1R-CHOk1 cells", "in_short": "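Stable M1R-CHOk1 line; Fluo-4 AM 2 µM, 1 h, 37 °C; HEPES-buffered HBSS pH 7.4 + 1 mM MgCl2/CaCl2 + 2.5 mM probenecid; 10 min equilibration; compound injected post-baseline; ex 485/em 525, 37 °C; DMSO ≤0.3%.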"}, "GPR139 [2]": {"biological_target": "T2, GPR139 (Homo sapiens, UniProt Q6DWJ6)", "T2 sequence (Q6DWJ6 1-353)": "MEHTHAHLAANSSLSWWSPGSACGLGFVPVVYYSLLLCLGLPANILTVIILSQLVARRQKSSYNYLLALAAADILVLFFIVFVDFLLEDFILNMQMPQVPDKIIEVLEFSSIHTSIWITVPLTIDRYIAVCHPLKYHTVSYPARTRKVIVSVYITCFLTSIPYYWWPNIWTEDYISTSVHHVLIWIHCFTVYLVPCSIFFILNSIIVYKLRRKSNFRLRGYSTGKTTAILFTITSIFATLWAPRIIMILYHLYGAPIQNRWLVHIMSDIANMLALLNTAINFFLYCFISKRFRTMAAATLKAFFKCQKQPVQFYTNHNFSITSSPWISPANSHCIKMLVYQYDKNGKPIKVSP", "experiment": "Ca2+ mobilization assay, antagonist mode (EC80 800 nM Lundbeck Cmp 1a after 20 min preincubation), GPR139-CHOk1", "in_short": "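Fluo-4-loaded GPR139-CHOk1 cells in HEPES-buffered HBSS (pH 7.4, 2.5 mM probenecid) given test compounds at 10 µM, then after 20 min challenged with 800 nM Lundbeck Cmp 1a (EC80). Calcium fluorescence read at 37 °C, 485/525 nm.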"}, "GPR139 [3]": {"biological_target": "T2, GPR139", "experiment": "Ca2+ mobilization assay, agonist mode, stable GPR139-CHOk1 cell line", "settings": "for Emax: normalized to Lundbeck Cmp 1a, read-out: Emax (%) Ca2+", "in_short": "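Agonist activity of compounds is assessed in stably transfected CHO-K1 cells using the calcium dye Fluo-4 at 37 °C in HEPES-buffered HBSS (pH 7.4). Efficacy is expressed relative to the reference agonist Lundbeck Cmp 1a, set as 100%.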"}, "[4]": {"settings": "Supplementary Table 2, mean ± SEM"}}, "note": "“And” between values parts separate entries of the source, which are not always exact repeats. Equal values may be shown once. Read-outs that look alike come from different tables or passages of the source."}
{"smiles": "Cc1nocc1-c1nc(CC(=O)NC(C)c2ccccc2)no1", "note": "(stereo not shown) [Compound 1.5, CC(C1=CC=CC=C1)NC(CC2=NOC(C3=CON=C3C)=N2)=O]", "values": [{"measurement": "Ca2+ signal (% of Carbachol)", "setting": "[1]; individual replicates (Supplementary Figure 5)", "result": "5 % of Carbachol and 6 % of Carbachol and 8 % of Carbachol"}, {"measurement": "Ca2+ signal (% of Cmp 1a)", "setting": "GPR139 [2]; individual replicates (Supplementary Figure 4)", "result": "3.33 % of Cmp 1a and -5.33 % of Cmp 1a and -2.33 % of Cmp 1a"}, {"measurement": "Ca2+ signal (% of Cmp 1a)", "setting": "GPR139 [3]; Agonist mode, individual replicates (Supplementary Figure 4)", "result": "113 % of Cmp 1a and 100 % of Cmp 1a and 116 % of Cmp 1a"}, {"measurement": "EC50", "setting": "GPR139 [3]; GPR139-CHOk1, read-out: EC50, Ca2+ mobilization", "result": 130, "unit": "nM"}, {"measurement": "Emax", "setting": "GPR139 [3]; [4]", "result": "103 ± 6", "unit": "%"}, {"measurement": "Ca2+ signal (% of Cmp 1a)", "setting": "GPR139 [3]; log [Compound] M = -4.5, individual replicate columns", "result": "80 % of Cmp 1a and 113 % of Cmp 1a and 109 % of Cmp 1a and 101 % of Cmp 1a"}, {"measurement": "Ca2+ signal (% of Cmp 1a)", "setting": "GPR139 [3]; log [Compound] M = -5.0, individual replicate columns", "result": "104 % of Cmp 1a and 119 % of Cmp 1a and 100 % of Cmp 1a and 95 % of Cmp 1a"}, {"measurement": "Ca2+ signal (% of Cmp 1a)", "setting": "GPR139 [3]; log [Compound] M = -5.5, individual replicate columns", "result": "91 % of Cmp 1a and 108 % of Cmp 1a and 100 % of Cmp 1a and 85 % of Cmp 1a"}, {"measurement": "Ca2+ signal (% of Cmp 1a)", "setting": "GPR139 [3]; log [Compound] M = -6.0, individual replicate columns", "result": "78 % of Cmp 1a and 79 % of Cmp 1a and 91 % of Cmp 1a and 81 % of Cmp 1a"}, {"measurement": "Ca2+ signal (% of Cmp 1a)", "setting": "GPR139 [3]; log [Compound] M = -6.5, individual replicate columns", "result": "55 % of Cmp 1a and 74 % of Cmp 1a and 73 % of Cmp 1a and 76 % of Cmp 1a"}, {"measurement": "Ca2+ signal (% of Cmp 1a)", "setting": "GPR139 [3]; log [Compound] M = -7.0, individual replicate columns", "result": "36 % of Cmp 1a and 45 % of Cmp 1a and 52 % of Cmp 1a and 57 % of Cmp 1a"}, {"measurement": "Ca2+ signal (% of Cmp 1a)", "setting": "GPR139 [3]; log [Compound] M = -7.5, individual replicate columns", "result": "14 % of Cmp 1a and 3.67 % of Cmp 1a and 9 % of Cmp 1a and 12 % of Cmp 1a"}, {"measurement": "Ca2+ signal (% of Cmp 1a)", "setting": "GPR139 [3]; log [Compound] M = -8.0, individual replicate columns", "result": "17 % of Cmp 1a and 2 % of Cmp 1a and 47 % of Cmp 1a and -11 % of Cmp 1a"}, {"measurement": "Ca2+ signal (% of Cmp 1a)", "setting": "GPR139 [3]; log [Compound] M = -8.5, individual replicate columns", "result": "10 % of Cmp 1a and -6.33 % of Cmp 1a and 1 % of Cmp 1a and -17 % of Cmp 1a"}, {"measurement": "Ca2+ signal (% of Cmp 1a)", "setting": "GPR139 [3]; log [Compound] M = -9.0, individual replicate columns", "result": "-2.67 % of Cmp 1a and 0.333 % of Cmp 1a and -5 % of Cmp 1a and -15 % of Cmp 1a"}]}
{"smiles": "Cc1noc(CNC(=O)C2(C)CCCCN2C(=O)c2ccccc2)n1", "note": "(stereo not shown) [Compound 4, CC1=NOC(CNC(=O)C2(C)CCCCN2C(=O)C=3C=CC=CC3)=N1]", "values": [{"measurement": "Ca2+ signal (% of Carbachol)", "setting": "[1]; individual replicates (Supplementary Figure 2)", "result": "-17 % of Carbachol and -15 % of Carbachol"}, {"measurement": "Ca2+ signal (% of Cmp 1a)", "setting": "GPR139 [2]; individual replicates (Supplementary Figure 1)", "result": "35.6047 % of Cmp 1a and 34.6013 % of Cmp 1a and 39.6569 % of Cmp 1a"}, {"measurement": "Ca2+ signal (% of Cmp 1a)", "setting": "GPR139 [3]; 0.1 µM, individual replicates (Supplementary Figure 3)", "result": "-4.2 % of Cmp 1a and 0.43 % of Cmp 1a"}, {"measurement": "Ca2+ signal (% of Cmp 1a)", "setting": "GPR139 [3]; 1 µM, individual replicates (Supplementary Figure 3)", "result": "9.8 % of Cmp 1a and 4.1 % of Cmp 1a"}, {"measurement": "Ca2+ signal (% of Cmp 1a)", "setting": "GPR139 [3]; 10 µM, individual replicates (Supplementary Figure 3)", "result": "51.3 % of Cmp 1a and 47.8 % of Cmp 1a"}, {"measurement": "Ca2+ signal (% of Cmp 1a)", "setting": "GPR139 [3]; Agonist mode, individual replicates (Supplementary Figure 1)", "result": "75 % of Cmp 1a and 80 % of Cmp 1a and 81 % of Cmp 1a"}, {"measurement": "EC50", "setting": "GPR139 [3]; Supplementary Table 2, mean ± SEM, read-out: pEC50 Ca2+ (converted)", "result": 3980, "unit": "nM"}, {"measurement": "Emax", "setting": "GPR139 [3]; [4]", "result": "100 ± 7", "unit": "%"}, {"measurement": "Ca2+ signal (% of Cmp 1a)", "setting": "GPR139 [3]; log [Compound] M -4.5, replicate experiments", "result": "98 % of Cmp 1a and 82 % of Cmp 1a"}, {"measurement": "Ca2+ signal (% of Cmp 1a)", "setting": "GPR139 [3]; log [Compound] M -5.0, replicate experiments", "result": "75 % of Cmp 1a and 63 % of Cmp 1a"}, {"measurement": "Ca2+ signal (% of Cmp 1a)", "setting": "GPR139 [3]; log [Compound] M -5.5, replicate experiments", "result": "44 % of Cmp 1a and 46 % of Cmp 1a"}, {"measurement": "Ca2+ signal (% of Cmp 1a)", "setting": "GPR139 [3]; log [Compound] M -6.0, replicate experiments", "result": "13 % of Cmp 1a and 24 % of Cmp 1a"}, {"measurement": "Ca2+ signal (% of Cmp 1a)", "setting": "GPR139 [3]; log [Compound] M -6.5, replicate experiments", "result": "4.41 % of Cmp 1a and 3 % of Cmp 1a"}, {"measurement": "Ca2+ signal (% of Cmp 1a)", "setting": "GPR139 [3]; log [Compound] M -7.0, replicate experiments", "result": "3.62 % of Cmp 1a and -1.16 % of Cmp 1a"}, {"measurement": "Ca2+ signal (% of Cmp 1a)", "setting": "GPR139 [3]; log [Compound] M -7.5, replicate experiments", "result": "-4.26 % of Cmp 1a and -2.55 % of Cmp 1a"}, {"measurement": "Ca2+ signal (% of Cmp 1a)", "setting": "GPR139 [3]; log [Compound] M -8.0, replicate experiments", "result": "-0.711 % of Cmp 1a and -3.49 % of Cmp 1a"}, {"measurement": "Ca2+ signal (% of Cmp 1a)", "setting": "GPR139 [3]; log [Compound] M -8.5, replicate experiments", "result": "5.56 % of Cmp 1a and 4.65 % of Cmp 1a"}, {"measurement": "Ca2+ signal (% of Cmp 1a)", "setting": "GPR139 [3]; log [Compound] M -9.0, replicate experiments", "result": "-1.86 % of Cmp 1a and -5 % of Cmp 1a"}, {"measurement": "Ca2+ signal (% of Cmp 1a)", "setting": "GPR139 [3]; primary screen, 10 µM compound, agonist mode, three columns = independent experiments", "result": "75 % of Cmp 1a and 80 % of Cmp 1a and 81 % of Cmp 1a"}]}
